The values below come from PMC4231793 (Biology of blood and marrow transplantation : journal of …, 2012).

One data set concerns CYP3A4. Particulars: compared with itraconazole, voriconazole, and posaconazole; ref [7],[23]; cited from earlier work.
Data set [1] in a line: Population pharmacokinetic analysis. It counts as in vivo, human.
The format of data set [2] is in vivo, human.
A short description of data set [3]: Noncompartmental pharmacokinetic analysis of whole-blood sirolimus. It is filed as in vivo, human. Particulars: for concentration at 0 h: Co (trough concentration prior to oral dosing).
The conditions of data set [4]: ref [10], cited from earlier work.
The conditions of data set [5]: cited from earlier work; for AUC0–24: ref [9],[14]; for Half-life: ref [9]; for t1/2: pediatric renal transplant patients, every-12-hour schedule, calcineurin inhibitor-free protocol, ref [8].
The mark [6] stands for this setting: human, whole blood, oral, 2.5 mg/m^2/day.
The mark [7] stands for this setting: population estimate ± standard error.
Setting [8] is: patients receiving concomitant fluconazole (i.v. or oral).
Setting [9] is: at 180 days, sirolimus, tacrolimus and methotrexate GVHD prophylaxis.
Where [10] appears, read: of 63 subjects in the clinical study, sirolimus with tacrolimus.

Structures are written as SMILES. Where “and” joins values, the source holds several entries; their conditions need not be identical. Equal values may be shown once. Read-outs that look alike come from different tables or passages of the source.

As for `OC(Cn1cncn1)(Cn1cncn1)c1ccc(F)cc1F` [Fluconazole], the “In vitro CYP3A4 inhibition, rank among azoles” value in the data set with CYP3A4 is reported as “weakest in vitro inhibitor of CYP3A4”.
Regarding `CO[C@H]1C[C@@H]2CC[C@@H](C)[C@@](O)(O2)C(=O)C(=O)N2CCCC[C@H]2C(=O)O[C@H]([C@H](C)C[C@@H]2CC[C@@H](O)[C@H](OC)C2)CC(=O)[C@H](C)/C=C(\C)[C@@H](O)[C@@H](OC)C(=O)[C@H](C)C[C@H](C)/C=C/C=C/C=C/1C` [sirolimus, Sirolimus], in data set [1] (37 patients, 333 concentrations, estimate ± standard error), the “Clearance (Cl/F), population estimate” value is on record as 6.66 ± 1.10 L/h. For the same compound, the values for the CL/F in data set [1] (setting [6]) and in data set [3] (setting [6]) were 2.83 mL/min/kg and 3.17 mL/min/kg, respectively. For the same compound, the Vd in data set [1] (setting [6]) was 26.9 ± 7.7 L. In addition, the “Absorption rate constant (ka)” value in data set [1] (setting [7]) was 0.0535 ± 0.0104 h⁻¹. In addition, in data set [1] (setting [7]), the “Intercompartment clearance (Q)” value is given as 4.62 ± 2.00 L/h. Further, in data set [1] (setting [7]), the “Volume of distribution of peripheral compartment (Vp)” value was 630 ± 171 L. The “Share of sirolimus whole-blood concentrations >12 ng/mL” value in data set [2] (above target range) amounted to 12%. Further, the “Share of sirolimus whole-blood concentrations <3 ng/mL” value in data set [2] (below target range) is 9%. Besides, the “Share of sirolimus whole-blood (trough) concentrations within target range” value in data set [2] (target range 3–12 ng/mL, with therapeutic drug monitoring) amounted to 79%. Also, the concentration at 24 h in data set [3] (human, whole blood, iv, 2.5 mg/m^2/day, C24 trough concentration, patients who developed grade III–IV aGVHD (n = 10), mean ± SD) worked out at 6.1 ± 2.9 ng/mL; in data set [3] (human, whole blood, oral, 2.5 mg/m^2/day, C24 (trough concentration at 24 hours after oral dosing), i.v. Fluconazole (n = 16), mean ± SD (range)), 10 ng/mL; in data set [3] (human, whole blood, oral, 2.5 mg/m^2/day, C24 trough concentration, patients with grade 0-II aGVHD (n = 22), mean ± SD), 9.4 ± 5.5 ng/mL; in data set [3] (human, whole blood, po, 2.5 mg/m^2/day, C24 (trough concentration at 24 hours after oral dosing), All (n = 33), mean ± SD (range)), 9.1 ± 5.3 ng/mL; in data set [3] (human, whole blood, po, 2.5 mg/m^2/day, C24 (trough concentration at 24 hours after oral dosing), No Fluconazole (n = 11), mean ± SD (range)), 8 ng/mL; in data set [3] (human, whole blood, po, 2.5 mg/m^2/day, C24 (trough concentration at 24 hours after oral dosing), Oral Fluconazole (n = 6), mean ± SD (range)) it was 8.6 ng/mL. Moreover, in data set [3] (setting [6]), the AUC(0-t) was 401 ± 316 ng·h/mL. Besides, the Tmax in data set [3] (setting [6]) is 3.3 ± 1.6 h. This compound also registered a Vd/F in data set [3] (setting [6]) of 5.78 ± 5.7 L/kg. In addition, the concentration at 0 h in data set [3] (human, whole blood, oral, 2.5 mg/m^2/day, i.v. Fluconazole (n = 16), mean ± SD (range)) came out at 8 ng/mL; in data set [3] (human, whole blood, po, 2.5 mg/m^2/day, All (n = 33), mean ± SD (range)) it was 8 ± 4.6 ng/mL; in data set [3] (human, whole blood, po, 2.5 mg/m^2/day, No Fluconazole (n = 11), mean ± SD (range)), 6.8 ng/mL; in data set [3] (human, whole blood, po, 2.5 mg/m^2/day, Oral Fluconazole (n = 6), mean ± SD (range)), 11 ng/mL. The Half-life was 21.8 h in data set [3] (human, whole blood, oral, 2.5 mg/m^2/day, Mean t1/2, patients age ≤12 years); 21.2 ± 14.1 h in data set [5] (pediatric liver transplant recipients on sirolimus and tacrolimus); 19.3 ± 5.6 h in data set [5] (small bowel transplant recipients on sirolimus and tacrolimus). Also, the “Difference between trough concentrations (C24 - C0)/C24, average” value in data set [3] (n = 33, not significantly greater than 0 (P = .75)) is 10.3%. Further, the “Dose-normalized C24” value was 2.5 ± 1.7 ng/mL/mg and 2.51 ± 1.72 ng/mL/mg in data set [3] (patients not receiving fluconazole); 4.8 ± 3.3 ng/mL/mg and 4.8 ± 3.34 ng/mL/mg in data set [3] (setting [8]). Moreover, the “Dose-normalized C0” value in data set [3] (setting [8]) was 3.9 ± 2.5 ng/mL/mg and 3.93 ± 2.5 ng/mL/mg. The C24 trough concentration came to 6.11 ± 2.89 ng/mL in data set [3] (patients who developed grade III–IV aGVHD (n = 10), mean ± SD) and 9.42 ± 5.52 ng/mL in data set [3] (patients with grade 0-II aGVHD (n = 22), mean ± SD). In data set [4] (setting [9]), the “Cumulative incidence of grade III–IV aGVHD” value is recorded as 21%. The “Cumulative incidence of grade II–IV aGVHD” value in data set [4] (setting [9]) is on record as 38%. Also, the “Subjects who developed thrombotic microangiopathy” value in data set [4] (setting [10]) is 3 subjects. The “Subjects who developed veno-occlusive disease of liver” value in data set [4] (setting [10]) was 7 subjects. In addition, the “AUC0–24” value in data set [5] (adult kidney transplant recipients) is listed as 173 ± 50 ng·h/mL; in data set [5] (pediatric liver transplant recipients) it was 168.3 ± 86.5 ng·h/mL; in data set [5] (pediatric small bowel transplant recipients) it was 177.4 ± 72.1 ng·h/mL. Also, the t1/2 is 9.7 h in data set [5] (1 month posttransplantation) and 10.8 h in data set [5] (3 months posttransplantation).

The term CL/F denotes clearance divided by bioavailability, as obtained after extravascular dosing. Broadly, the AUC(0-t) is exposure summed from dosing to a finite time, without extrapolation to infinity. The Tmax is the time from dosing to the highest level. The term Vd/F denotes the volume of distribution divided by bioavailability.
